The values that follow come from US8916183B2, “Pesticidal compositions and processes related thereto” (priority 2012, dated 2014).

The test system of series [1] is Corn Earworm (CEW) (Helicoverpa zea). The experiment in a line: Bioassay on corn earworm (CEW), 128-well diet tray assay. The class given is in vivo. The following applies: Helicoverpa zea, read-out: % Mortality CEW 50 μg/cm^2. The gist of the method:
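Activity was scored as percent larval mortality per well, averaged across eight wells and reported on a rating scale. Diet trays (128-well) were kept at 25° C with 14:10 light-dark for five to seven days.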

For series [2], the system named is Green Peach Aphid (GPA) (Myzus persicae). Briefly: Bioassay on green peach aphid (GPA), foliar spray on cabbage seedlings. The class given is in vivo. The settings on record: read-out: % Mortality GPA 200 ppm. The method, boiled down:
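Cabbage seedlings (2-3 true leaves), each infested a day earlier with 20-50 wingless adult and nymph GPA, were sprayed on both leaf sides to runoff, four pots per treatment. Corrected % control was calculated against solvent-check plants.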

Series [3] deals with Beet Armyworm (BAW) (Spodoptera exigua). The experiment in a line: Bioassay on beet armyworm (BAW), 128-well diet tray assay. Type of series: in vivo. The settings on record: Spodoptera exigua, read-out: % Mortality BAW 50 μg/cm^2.

SMILES strings stand for the structures. Read-outs that look alike come from different tables or passages of the source.

In general, melting point refers to the temperature of the solid-liquid transition. In turn, `CC(C)c1cc(F)c(F)cc1NC(=S)N/N=C/c1ccc(-c2ncn(-c3ccc(OC(F)(F)F)cc3)n2)cc1` [Compound I-55] registered a melting point of 217 to 221 °C.

For `Cc1ccc(C(C)C)c(NC(=S)NN)c1` [Compound I-46], the melting point fell in the range of 167 to 169 °C.

As to `FC(F)(F)Oc1ccc(-n2cnc(-c3ccc(/C=N/NC(=S)Nc4ccccc4C4CCCC4)cc3)n2)cc1` [Compound I-35], the melting point lay within 213 to 216 °C.

For `CC(C)c1cc(F)ccc1NC(=S)NN` [Compound I-50], the melting point lay within 163 to 167 °C.

`Cc1cccc(NC(=S)N/N=C/c2ccc(-c3ncn(-c4ccc(OC(F)(F)F)cc4)n3)cc2)c1C(C)C` [Compound I-43] returned a melting point of 219 to 222 °C.

As to `CC(C)c1cc(F)c(F)cc1NC(=S)NN` [Compound I-54], the melting point is 169 to 170 °C.

On to `CC(C)=Cc1ccccc1N1CCCS/C1=N\N=C\c1ccc(-c2ncn(-c3ccc(OC(F)(F)F)cc3)n2)cc1` [Compound 197C], for which the mortality at 50 µg/cm2 in series [1] (corn earworm, 50 μg/cm^2) lay within 50 to 100%; in series [3] (beet armyworm, 50 μg/cm^2) it was 50 to 100%. Besides, in series [2] (green peach aphid, 200 ppm), the mortality at 200 ppm was determined as 0%.

For `CCc1cccc(C)c1N1CCCS/C1=N\N=C\c1ccc(-c2ncn(-c3ccc(OC(F)(F)F)cc3)n2)cc1` [Compound 180C], the mortality at 50 µg/cm2 in series [1] (corn earworm, 50 μg/cm^2) lay in the range of 50 to 100%; in series [3] (beet armyworm, 50 μg/cm^2), 50 to 100%. For the same molecule, the mortality at 200 ppm in series [2] (green peach aphid, 200 ppm) was 0 to 80%.

Turning to `CCC(C)c1ccccc1N1CCS/C1=N\N=C\c1ccc(-c2ncn(-c3ccc(OC(F)(F)F)cc3)n2)cc1` (stereo not drawn) [Compound 135C], the mortality at 50 µg/cm2 fell in the range of 50 to 100% in series [1] (corn earworm, 50 μg/cm^2) and 50 to 100% in series [3] (beet armyworm, 50 μg/cm^2). In addition, the mortality at 200 ppm in series [2] (green peach aphid, 200 ppm) was 0%.

Consider `FC(F)(F)Oc1ccc(-n2cnc(-c3ccc(/C=N/N=C4\SCCCN4c4ccccc4C4CC4)cc3)n2)cc1` [Compound 186C], for which the mortality at 50 µg/cm2 lay within 50 to 100% in series [1] (corn earworm, 50 μg/cm^2) and 50 to 100% in series [3] (beet armyworm, 50 μg/cm^2). Further, the mortality at 200 ppm in series [2] (green peach aphid, 200 ppm) fell in the range of 0 to 80%.

Take `Cc1ccccc1N1/C(=N/N=C/c2ccc(-c3ncn(-c4ccc(OC(F)(F)F)cc4)n3)cc2)SCC1(C)O` (stereo not drawn) [Compound 248C]: the mortality at 50 µg/cm2 in series [1] (corn earworm, 50 μg/cm^2) fell in the range of 50 to 100%; in series [3] (beet armyworm, 50 μg/cm^2) it was 50 to 100%. In addition, the mortality at 200 ppm in series [2] (green peach aphid, 200 ppm) lay within 0 to 80%.

Regarding `Cc1cccc(C)c1/N=C(/N/N=C/c1ccc(-c2ncn(-c3ccc(OC(F)(F)F)cc3)n2)cc1)SCC(=O)N1CCNCC1` [Compound 67C], the mortality at 50 µg/cm2 in series [1] (corn earworm, 50 μg/cm^2) lay within 50 to 100%; in series [3] (beet armyworm, 50 μg/cm^2), 50 to 100%. In addition, the mortality at 200 ppm in series [2] (green peach aphid, 200 ppm) is 0%.

In the case of `COc1cc(C)c(/N=C(/N/N=C/c2ccc(-c3ncn(-c4ccc(OC(F)(F)F)cc4)n3)cc2)SCOC(=O)C(C)OCC(F)(F)F)c(C)c1` (stereo not drawn) [Compound 38C], the mortality at 50 µg/cm2 in series [1] (corn earworm, 50 μg/cm^2) lay within 50 to 100%; in series [3] (beet armyworm, 50 μg/cm^2), 50 to 100%. For the same molecule, the mortality at 200 ppm in series [2] (green peach aphid, 200 ppm) was found to be 0%.

`FC(F)(F)Oc1ccc(-n2cnc(-c3ccc(/C=N/N=C4\SCCCN4c4c(Cl)cccc4C(F)(F)F)cc3)n2)cc1` [Compound 190C]: the mortality at 50 µg/cm2 in series [1] (corn earworm, 50 μg/cm^2) lay within 50 to 100%; in series [3] (beet armyworm, 50 μg/cm^2), 50 to 100%. Also, the mortality at 200 ppm in series [2] (green peach aphid, 200 ppm) fell in the range of 0 to 80%.

Regarding `CCOc1ccccc1N1CCCS/C1=N\N=C\c1ccc(-c2ncn(-c3ccc(OC(F)(F)F)cc3)n2)cc1` [Compound 208C], the mortality at 50 µg/cm2 in series [1] (corn earworm, 50 μg/cm^2) fell in the range of 50 to 100%; in series [3] (beet armyworm, 50 μg/cm^2), 50 to 100%. Also, the mortality at 200 ppm in series [2] (green peach aphid, 200 ppm) came out at 0%.

As for `Cc1cccc(C)c1/N=C(/N/N=C/c1ccc(-c2ncn(-c3ccc(OC(F)(F)F)cc3)n2)cc1)SCOC(=O)CNC(=O)OC(C)(C)C` [Compound 30C], the mortality at 50 µg/cm2 lay in the range of 50 to 100% in series [1] (corn earworm, 50 μg/cm^2) and 50 to 100% in series [3] (beet armyworm, 50 μg/cm^2). In addition, the mortality at 200 ppm in series [2] (green peach aphid, 200 ppm) is 0 to 80%.

Consider `CC1CS/C(=N\N=C\c2ccc(-c3ncn(-c4ccc(OC(F)(F)F)cc4)n3)cc2)N1c1ccccc1OC(F)(F)F` (stereo not drawn) [Compound 168C], for which the mortality at 50 µg/cm2 fell in the range of 50 to 100% in series [1] (corn earworm, 50 μg/cm^2) and 50 to 100% in series [3] (beet armyworm, 50 μg/cm^2). Besides, in series [2] (green peach aphid, 200 ppm), the mortality at 200 ppm is 0%.

Consider `Cc1cccc(C)c1/N=C(/N/N=C/c1ccc(-c2ncn(-c3ccc(OC(F)(F)F)cc3)n2)cc1)SCC#C[Si](C)(C)C` [Compound 9C], for which the mortality at 50 µg/cm2 in series [1] and in series [3] was 50 to 100% in each case. Also, in series [2], the mortality at 200 ppm was 0%.

On to `Cc1cccc(C)c1/N=C(/N/N=C/c1ccc(-c2ncn(-c3ccc(OC(F)(F)F)cc3)n2)cc1)SCOC(=O)C(C)C` [Compound 25C], for which the mortality at 50 µg/cm2 in series [1] (corn earworm, 50 μg/cm^2) is 50 to 100%; in series [3] (beet armyworm, 50 μg/cm^2), 50 to 100%. Moreover, the mortality at 200 ppm in series [2] (green peach aphid, 200 ppm) turned out to be 0%.

Regarding `Cc1cccc(C)c1/N=C(/N/N=C/c1ccc(-c2ncn(-c3ccc(OC(F)(F)F)cc3)n2)cc1)SCc1cc2c(C(F)(F)F)nn(C)c2s1` [Compound 19C], the mortality at 50 µg/cm2 in series [1] (corn earworm, 50 μg/cm^2) fell in the range of 50 to 100%; in series [3] (beet armyworm, 50 μg/cm^2) it was 50 to 100%. In addition, the mortality at 200 ppm in series [2] (green peach aphid, 200 ppm) lay within 0 to 80%.

Regarding `CCc1cccc(C)c1N1/C(=N/N=C/c2ccc(-c3ncn(-c4ccc(OC(F)(F)F)cc4)n3)cc2)SCC1C` (stereo not drawn) [Compound 156C], the mortality at 50 µg/cm2 fell in the range of 50 to 100% in series [1] (corn earworm, 50 μg/cm^2) and 50 to 100% in series [3] (beet armyworm, 50 μg/cm^2). In addition, in series [2] (green peach aphid, 200 ppm), the mortality at 200 ppm was 0 to 80%.

As to `FC(F)(F)Oc1ccc(-n2cnc(-c3ccc(/C=N/N=C4\SCCN4c4c(Cl)cccc4C(F)(F)F)cc3)n2)cc1` [Compound 149C], the mortality at 50 µg/cm2 in series [1] (corn earworm, 50 μg/cm^2) lay in the range of 50 to 100%; in series [3] (beet armyworm, 50 μg/cm^2), 50 to 100%. Also, the mortality at 200 ppm in series [2] (green peach aphid, 200 ppm) was 0%.

With `Cc1cccnc1N1CCCS/C1=N\N=C\c1ccc(-c2ncn(-c3ccc(OC(F)(F)F)cc3)n2)cc1` [Compound 198C], the mortality at 50 µg/cm2 was in the range of 50 to 100% in series [1] (corn earworm, 50 μg/cm^2) and 50 to 100% in series [3] (beet armyworm, 50 μg/cm^2). Moreover, the mortality at 200 ppm in series [2] (green peach aphid, 200 ppm) came out at 0%.

As to `COc1cc(C)c(N2CCS/C2=N\N=C\c2ccc(-c3ncn(-c4ccc(OC(F)(F)F)cc4)n3)cc2)c(C)c1` [Compound 138C], the mortality at 50 µg/cm2 fell in the range of 50 to 100% in series [1] (corn earworm, 50 μg/cm^2) and 50 to 100% in series [3] (beet armyworm, 50 μg/cm^2). Also, the mortality at 200 ppm in series [2] (green peach aphid, 200 ppm) fell in the range of 0 to 80%.

On to `CC(C)c1cccc(F)c1N1/C(=N/N=C/c2ccc(-c3ncn(-c4ccc(OC(F)(F)F)cc4)n3)cc2)SCC1(C)O` (stereo not drawn) [Compound 250C], for which the mortality at 50 µg/cm2 in series [1] (corn earworm, 50 μg/cm^2) lay in the range of 50 to 100%; in series [3] (beet armyworm, 50 μg/cm^2), 50 to 100%. In series [2] (green peach aphid, 200 ppm), the mortality at 200 ppm fell in the range of 0 to 80%.

As for `CC1S/C(=N\N=C\c2ccc(-c3ncn(-c4ccc(OC(F)(F)F)cc4)n3)cc2)N(c2ccccc2C(C)C)C1=O` (stereo not drawn) [Compound 88C], the mortality at 50 µg/cm2 in series [1] (corn earworm, 50 μg/cm^2) lay within 50 to 100%; in series [3] (beet armyworm, 50 μg/cm^2), 50 to 100%. In series [2] (green peach aphid, 200 ppm), the mortality at 200 ppm was in the range of 0 to 80%.

Consider `CC(C)Cc1ccccc1N1CCS/C1=N\N=C\c1ccc(-c2ncn(-c3ccc(OC(F)(F)F)cc3)n2)cc1` [Compound 150C], for which the mortality at 50 µg/cm2 in series [1] (corn earworm, 50 μg/cm^2) lay within 50 to 100%; in series [3] (beet armyworm, 50 μg/cm^2), 50 to 100%. The mortality at 200 ppm in series [2] (green peach aphid, 200 ppm) turned out to be 0%.

With `Cc1ccccc1N1CCCS/C1=N\N=C\c1ccc(-c2ncn(-c3ccc(OC(F)(F)F)cc3)n2)cc1` [Compound 195C], the mortality at 50 µg/cm2 fell in the range of 50 to 100% in series [1] (corn earworm, 50 μg/cm^2) and 50 to 100% in series [3] (beet armyworm, 50 μg/cm^2). Besides, the mortality at 200 ppm in series [2] (green peach aphid, 200 ppm) was 0 to 80%.
